Experimental findings from paper PMC4467139, “Garcinol sensitizes human head and neck carcinoma to cisplatin in a xenograft mouse model despite downregulation of proliferative biomarkers” (Oncotarget, 2015) are described below.

Read-outs that look alike come from different tables or passages of the source. Peptide text beside a SMILES is read from it. * marks the point of attachment. Cbz = O=C(OCc1ccccc1)*; CH2F = FC*

For one series, the system named is CAL27 xenografts. Nature of the series: HNSCC xenograft mouse model, tumor volume. The class given is in vivo, athymic nu/nu female mice. The settings on record: 4 weeks, garcinol 0.5 mg/kg i.p. five times/week, cisplatin 2 mg/kg i.p. twice weekly. How it is done: (§1) All procedures involving animals were reviewed and approved by NUS Institutional Animal Care and Use Committee. Six-week old athymic nu/nu female mice (Animal Resource Centre, Australia) were implanted subcutaneously in the right flank with CAL27 cells (3 × 10^6 cells/100 μL saline). When tumors have reached 0.25 cm in diameter, the mice were randomized into the following treatment groups (n = 5/group): (I) untreated control (0.1% DMSO, 100 μL daily); (II) garcinol (0.5 mg/kg body weight, suspended in 0.1% DMSO, intraperitoneal [i.p.] injection, five times/week); (III) cisplatin alone (2 mg/kg body weight, suspended in 0.1% DMSO, i.p. injection, twice/week); and (IV) combination (garcinol, 0.5 mg/kg body weight, i.p. injection, five times/week and cisplatin, 2 mg/kg body weight, i.p. injection, twice/week). Therapy was continued for 4 weeks, and the animals were euthanized 24 h after the last dose. Primary tumors were excised and the final tumor volume was calculated using the formula V = L × (W)^2/2 where L is the length and W is the width. Half of the tumor tissue was fixed in formalin and embedded in paraffin for immunohistochemistry (IHC) analysis. The other half was snap frozen in liquid nitrogen and stored at −80°C.

Series [1] is described as follows: Body weight during xenograft experiment. The class given is in vivo, athymic nu/nu female mice. As to conditions: four week treatment; garcinol 0.5 mg/kg i.p. five times/week, alone or with cisplatin 2 mg/kg i.p. twice weekly. How it is done:
as §1

Series [2] is described as follows: Pharmacokinetics study of garcinol in mice. The class given is in vivo. As to conditions: nude, ip, mouse serum; for AUC: read-out: area under the serum concentration-time curve (AUC) at 8 h; for Cmax: read-out: peak serum concentration (Cmax); for Tmax: read-out: time of peak serum concentration post-dose. How it is done:
Pharmacokinetics of garcinol was conducted in nude mice by i.p. injection at dose of 0.5 mg/kg or 2 mg/kg. The mice were allowed food and water ad libitum before pharmacokinetics experiment. About 150 μL of blood was taken from facial vein of mice at 10 min, 30 min, 1, 2, 4, 6, and 8 h post-dose. After centrifugation of blood samples at 14,000 rpm at 4°C for 10 min, mouse sera (the supernatant) were transferred into Eppendorf tube. 10 μL of each serum was processed by adding 3-folds excess of acetonitrile-containing isogarcinol, the internal standard followed by vortexing for 1 min. The tube was then centrifuged at 14,000 rpm at 4°C for 10 min. Then 30 μL of the supernatants were transferred into glass inserts (250 μL) with 70 μL of 10 mM ammonia acetate solution. 50 μL of processed serum samples were injected into LC-MS/MS which was carried out under negative electrospray ionization (ESI) and multiple reaction monitoring (MRM) mode. […] The daughter ion monitored for garcinol and isogarcinol was 409 and 335, respectively. SCIEX Analyst software (version 1.4.2) was used for data acquisition and analysis.

A further series concerns CAL27 cells. Nature of the series: MTT cell viability assay. The class given is cell-based. As to conditions: Homo sapiens, CAL-27, CAL27, 72 h. How it is done:
The inhibitory effect of garcinol against HNSCC cell growth was determined by the MTT dye uptake method as described previously. Briefly, the cells (5 × 10^4 cells/mL) were incubated in triplicate in a 96-well plate in the presence or absence of different concentrations of garcinol in a final volume of 0.2 mL for indicated time intervals at 37 °C. Thereafter, 20 μL MTT solution (5 mg/mL in PBS) was added to each well. After a 2 h incubation at 37°C, 0.1 mL lysis buffer (20% SDS, 50% dimethylformamide) was added after removal of the medium, incubation was continued at 37°C for 1 h, and then the optical density (OD) at 570 nm was measured by the Safire2™ microplate reader (Tecan). […]
www.impactjournals.com/oncotarget/ Oncotarget, Supplementary Materials 2015 […]
Supplementary Figure 1: (A) Garcinol augments the cytotoxic effect of cisplatin in HNSCC cells. CAL27 cells (1 × 10^4 cells/well) were exposed for 48 h to different concentrations of garcinol and cisplatin, and their combination and then subjected to MTT assay to analyze the viability of tumor cells. (B) Assessment on the type of combination relationship was done using the method developed by Chou-Talalay multiple drug effect equation. The degree of synergy was assessed based on CI values, where CI values of > 1.0 implies antagonism, 1.0 implies additive and < 1.0 implies synergistic effect relationships. […]
On the technique in general: Tetrazolium dyes change colour on reduction, which living cells bring about.

The test system of series [3] is NF-κB-dependent reporter gene expression in MDA686Tu cells. Description: NF-κB luciferase reporter assay. The settings on record: 12 h. The class given is cell-based, human. How it is done:
MDA686Tu cells (1 × 10^4 cells/well) in 96-well were transfected of plasmid with NF-κB responsive […] elements linked to a luciferase reporter gene using lipofectamine® 2000. After transfection for 48 h, indicated concentrations of garcinol were added into the wells for 12 h. Luciferase activity was determined using Bright-Glo™ luciferase assay kit from Promega.
(In general: In a reporter assay the amount or activity of a reporter protein is the signal.)

A further series relates to MDA686LN cells. Nature of the series: MTT cell viability assay. The class given is cell-based. The settings on record: Homo sapiens, 72 h. How it is done:
(§2) The inhibitory effect of garcinol against HNSCC cell growth was determined by the MTT dye uptake method as described previously. Briefly, the cells (5 × 10^4 cells/mL) were incubated in triplicate in a 96-well plate in the presence or absence of different concentrations of garcinol in a final volume of 0.2 mL for indicated time intervals at 37 °C. Thereafter, 20 μL MTT solution (5 mg/mL in PBS) was added to each well. After a 2 h incubation at 37°C, 0.1 mL lysis buffer (20% SDS, 50% dimethylformamide) was added after removal of the medium, incubation was continued at 37°C for 1 h, and then the optical density (OD) at 570 nm was measured by the Safire2™ microplate reader (Tecan).

Another series has as its system UMSCC1 cells. Nature of the series: MTT cell viability assay. The class given is cell-based. The settings on record: Homo sapiens, UMSCC1, 72 h. How it is done:
as §2

Series [4] has as its system PARP cleavage in CAL27 cells. Description: Western blot of PARP cleavage. The class given is cell-based, human. As to conditions: Z-VAD-fmk 20 μM together with 15 μM garcinol and 5 μM cisplatin, 48 h. How it is done: Vehicle or drug-treated whole-cell extracts were lysed in lysis buffer [250 mM NaCl, 20 mM HEPES, 2 mM EDTA (pH 8.0), 0.5 mM EGTA, 0.1% Triton X-100, 1.5 μg/mL aprotinin, 1.5 μg/mL leupeptin, 1 mM phenylmethylsulfonylfluoride (PMSF), and 1.5 mM NaVO4]. Lysates were then spun at 13,300 rpm for 10 min to remove insoluble material and resolved on a 10% SDS gel. After electrophoresis, the proteins were electrotransferred to a nitrocellulose membrane (Bio-Rad), blocked with Blocking One (Nacalai Tesque, Inc.), and probed with antibodies of interest overnight at 4 °C. The blot was washed with TBS with 0.1% Tween-20, exposed to HRP-conjugated secondary antibodies for 1 h, and finally examined by chemiluminescence using Western Bright Sirius HRP substrate (Advansta).
Supplementary Figure 2: Z-VAD-fmk abrogates the garcinol-induced caspase-3 activation. CAL27 cells (5 × 10^5 cells/mL) were treated with 15 μM garcinol and/or 5 μM cisplatin for 48 h in the absence or presence of 20 μM Z-VAD-fmk, whole-cell extracts were prepared, separated by SDS-PAGE, and subjected to western blot against PARP antibody. The same blot was stripped and reprobed with β-actin antibody to verify equal protein loading.
(also on this page, place not known: www.impactjournals.com/oncotarget/ Oncotarget, Materials 2014 Supplementary Z-V AD-fmk 10 5 Z-V AD-fmk,) […]

As for `N.N.[Cl][Pt][Cl]` [cisplatin, cis-dichloro-diammineplatinum (II)], the “reduction of tumor volume” value with CAL27 xenografts is listed as 50%.
Usually IC50 stands for the midpoint of a concentration-inhibition curve. On to `C=C(C)[C@@H](CC=C(C)C)C[C@@]12C[C@@H](CC=C(C)C)C(C)(C)[C@@](CC=C(C)C)(C(=O)C(C(=O)c3ccc(O)c(O)c3)=C1O)C2=O` [garcinol], for which the “body weight of the animals” value in series [1] was “no significant loss of body weight”. Further, the figures for the AUC in series [2] (0.5 mg/kg i.p.) and in series [2] (2 mg/kg i.p.) were 4.3 µM·h and 16.9 µM·h, respectively. Besides, the Cmax amounted to 1.83 µM in series [2] (0.5 mg/kg i.p.) and 6.64 µM in series [2] (2 mg/kg i.p.). In addition, the Tmax in series [2] (0.5 mg/kg i.p.) and in series [2] (2 mg/kg i.p.) was 30 min throughout. In addition, the IC50 was 14.7 µM in the series with CAL27 cells, 13.8 µM in the series with MDA686LN cells and 11.6 µM in the series on UMSCC1 cells. In series [3], the “NF-κB-dependent reporter gene expression” value is on record as “significantly abrogate”. Moreover, in the series with CAL27 xenografts, the “reduction of tumor volume” value is on record as 50%.
Regarding `COC(=O)C[C@H](NC(=O)[C@H](C)NC(=O)[C@@H](NC(=O)OCc1ccccc1)C(C)C)C(=O)CF` [Z-VAD-fmk] (Cbz-Val-Ala-Asp(OMe)-CH2F), the “effect on increased PARP cleavage” value in series [4] is recorded as “completely blocked”.
